Read-outs that look alike come from different tables or passages of the source.
Key:
[1] = test system: HEK293T cells expressing CPG2 variants; assay: Viability of HEK293T cells expressing CPG2 variants exposed to prodrug; type: cell-based, human
Experimental: FIG. 9 provides exemplary data showing that that cell-secreted and transmembrane CPG2 expressed in stably transfected cells activates an AIS prodrug. Expression of CPG2 without a signal peptide (CPG2nosigp) was employed as a control. 293t cells stably transfected with CPG2 variants were exposed to P-AMS (1 μM) for 48 hours and analyzed by bright field microscopy (FIG. 9A). Cells were exposed to varying concentrations of P-AMS and cell viability was analyzed at 48 hr post treatment (FIG. 9B).
Expression of CPG2 without a signal peptide (CPG2nosigp) was employed as a control. HEK293t cells stably transfected with CPG2 variants were exposed to P-AMS (1 μM) for 48 hours and analyzed by bright field microscopy (FIG. 9A). Cells were exposed to varying concentrations of P-AMS and cell viability was analyzed at 48 hr post treatment (FIG. 9B).

[2] = mouse, in vivo
[3] = test system: endogenous glutamate carboxypeptidase expressed in human prostate cells; assay: Prodrug stability towards endogenous glutamate carboxypeptidase, LNCap viability; type: cell-based
Excerpt: This prodrug/drug combination was chosen for further development of the SEAKER systems.

in vivo = settings: NOD, mouse
[4] = Cell permeability in CACO-2 cells; type: in vitro ADME; settings: human, read-out: Efflux Ratio (B-A/A-B)
[5] = test system: myeloid leukemia cell line SET2; assay: Cytotoxicity, SET2; type: cell-based; settings: Set2, prodrug versus AMS
SET2 cells = assay: SET2 viability with prodrug plus enzyme or enzyme-containing supernatant; type: cell-based; settings: increasing prodrug
Experimental: Recombinant CPG2 protein was initially synthesized, purified (FIGS. 18A and 18B), and incubated with increasing concentrations of prodrug in a glutamate release assay (FIG. 17C). Mass spectrometry was used to determine that the glutamate moiety was released from all of the glutamate prodrugs.
Cell viability was measured by CellTitre-Glo® luminescence assay.
To determine to respective enzyme output of the Beta-lactamase constructs relative to the previous CPG2 constructs, a quantitative sandwich ELISA was used to determine the concentration (ng/mL) of purified recombinant CPG2, and a quantitative nitrocefin assay was used to determine the concentration (ng/mL) of purified recombinant Beta-lactamase (FIG. 25A). Cell viability was measured by CellTitre-Glo® luminescence in the presence of prodrug (glut-AMS or ceph-AMS) and varying concentrations of purified recombinant CPG2 or Beta-lactamase (FIG. 25B).

HEK293T (kidney) = assay: CellTitre Glo in vitro cytotoxicity, HEK293T; type: cell-based, human; settings: prodrug versus AMS
primary T-cells = assay: CellTitre Glo in vitro cytotoxicity, primary T cells; type: cell-based; settings: prodrug versus AMS

Structure (SMILES): NS(=O)(=O)OC[C@H]1O[C@@H](n2cnc3c(NC(=O)N[C@@H](CCC(=O)O)C(=O)O)ncnc32)[C@H](O)[C@@H]1O [P-AMS, ((9-((2R,3R,4S,5R)-3,4-dihydroxy-5-((sulfamoyloxy)methyl)tetrahydrofuran-2-yl)-9H-purin-6-yl)carbamoyl)-L-glutamic acid]
- activation of prodrug by cells expressing CPG intracellularly ([1]; HEK293T cells expressing CPG intracellularly): not activated
- cell death of cells expressing secreted or transmembrane CPG2 ([1]; stably transfected HEK293T, cell-secreted and transmembrane CPG2, 48 hr, no-signal-peptide control did not): significant cell death
- toxicity in mice [2]: non-toxic
- stability in presence of endogenous glutamate carboxypeptidase [3]: remained stable
- half-life (in vivo): 30 to 40 min

Structure (SMILES): CN(C)C(=O)C(CCN1CCC(O)(c2ccc(Cl)cc2)CC1)(c1ccccc1)c1ccccc1 [Loperamide]
- efflux ratio ([4]; Caco-2, with Ver (concentration not stated), + Ver): 0.7
- efflux ratio ([4]; Caco-2, without Ver): 7.7

Structure (SMILES): Nc1ncnc2c1ncn2[C@@H]1O[C@H](COS(=O)(=O)NCC2=C(C(=O)O)N3C(=O)[C@@H](NC(=O)Cc4cccs4)[C@H]3SC2)[C@@H](O)[C@H]1O [ceph-AMS]
- Selective Index, Set2 [5]: ~64
- SET2 cell viability with Beta-lactamase supernatant (SET2 cells): significant decrease in cell viability
- Selective Index, HEK293t (HEK293T (kidney)): ~3
- Selective Index, Human T cell (primary T-cells): >6

— US20230190797A1, “COMPOSITIONS AND METHODS FOR ADOPTIVE CELL THERAPY” (MEMORIAL SLOAN KETTERING CANCER CENTER, priority 2017, published 2023)
